In patent US10722514B2 (FLX Bio, Inc., priority 2017, dated 2020) one finds IC50 data, which are given here for 26 compounds.

This test addresses T1, recombinant full-length USP7 (Homo sapiens, UniProt Q93009).
T1 construct: A 25 μl reaction volume containing recombinant full-length USP7 (62 pM)
Put plainly: USP7-mediated ubiquitin-rhodamine cleavage assay. Type of test: biochemical. The following applies: recombinant full-length USP7 62 pM; ubiquitin-rhodamine 100 nM; 30-minute incubation with compound, 1 hour reaction at room temperature; read-out: Potency: USP7 IC50. An outline of the steps:
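USP7 (62 pM) in 20 mM HEPES pH 7.3, 150 mM NaCl, 1 mM TCEP, 125 μg/ml BSA was preincubated with compound (1% DMSO) for 30 min at room temperature. Ubiquitin-rhodamine (100 nM final) was then added for 1 hour, the reaction stopped with acetic acid, and fluorescence read; IC50 from 4-parameter fit.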

T1 sequence (Q93009 whole entry): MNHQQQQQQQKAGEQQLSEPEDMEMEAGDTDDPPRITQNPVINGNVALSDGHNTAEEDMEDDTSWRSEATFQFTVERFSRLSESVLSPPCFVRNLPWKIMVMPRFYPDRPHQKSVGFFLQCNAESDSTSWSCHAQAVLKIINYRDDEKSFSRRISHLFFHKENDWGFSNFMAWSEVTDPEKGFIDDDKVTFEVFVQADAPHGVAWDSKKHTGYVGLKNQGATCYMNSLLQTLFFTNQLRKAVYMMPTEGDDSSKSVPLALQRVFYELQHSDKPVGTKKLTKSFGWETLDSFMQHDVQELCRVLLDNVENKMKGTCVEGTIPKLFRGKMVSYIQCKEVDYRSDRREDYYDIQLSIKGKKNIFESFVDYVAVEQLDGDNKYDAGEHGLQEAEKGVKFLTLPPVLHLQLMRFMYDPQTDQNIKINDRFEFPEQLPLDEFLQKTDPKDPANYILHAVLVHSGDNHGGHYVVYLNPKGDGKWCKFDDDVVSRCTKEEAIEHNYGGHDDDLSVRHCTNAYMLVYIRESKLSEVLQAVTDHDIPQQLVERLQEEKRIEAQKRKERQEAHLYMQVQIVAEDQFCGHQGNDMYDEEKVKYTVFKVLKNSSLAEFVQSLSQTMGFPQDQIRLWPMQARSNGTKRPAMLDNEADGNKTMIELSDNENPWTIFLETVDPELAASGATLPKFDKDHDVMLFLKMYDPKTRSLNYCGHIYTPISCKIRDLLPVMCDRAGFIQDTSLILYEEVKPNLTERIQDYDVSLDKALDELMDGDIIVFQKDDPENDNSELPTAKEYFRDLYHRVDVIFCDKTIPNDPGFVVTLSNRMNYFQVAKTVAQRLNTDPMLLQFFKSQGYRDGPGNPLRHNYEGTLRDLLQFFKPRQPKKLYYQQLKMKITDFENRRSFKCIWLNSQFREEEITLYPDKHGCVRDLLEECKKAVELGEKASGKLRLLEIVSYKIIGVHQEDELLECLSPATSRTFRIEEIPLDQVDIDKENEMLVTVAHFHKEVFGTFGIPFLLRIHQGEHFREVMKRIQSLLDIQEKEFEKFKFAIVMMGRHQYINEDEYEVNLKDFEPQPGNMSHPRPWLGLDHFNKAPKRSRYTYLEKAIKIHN

Consider `O=C1CCC(=O)N1Cc1cc2nccc(-c3cc(Cl)cc(C(F)(F)F)c3O[C@@H]3CNC[C@@H]3F)c2s1` [Example 120, 1-((7-(5-Chloro-2-(((3R,4S)-4-fluoropyrrolidin-3-yl)oxy)-3-(trifluoromethyl)phenyl)thieno[3,2-b]pyridin-2-yl)methyl)pyrrolidine-2,5-dione], for which the IC50 is less than 1000 nM.

For the compound `N#Cc1cc(Cl)cc(-c2ccnc3cc(CN4C(=O)CCC4=O)sc23)c1O[C@@H]1CNC[C@@H]1F` [Example 121, 5-Chloro-3-(2-((2,5-dioxopyrrolidin-1-yl)methyl)thieno[3,2-b]pyridin-7-yl)-2-(((3R,4S)-4-fluoropyrrolidin-3-yl)oxy)benzonitrile], the IC50 is less than 1000 nM.

Regarding `N#Cc1cc(Cl)c(O[C@@H]2CNC[C@@H]2F)c(-c2ccnc3cc(CN4C(=O)CCC4=O)sc23)c1` [Example 122, 3-Chloro-5-(2-((2,5-dioxopyrrolidin-1-yl)methyl)thieno[3,2-b]pyridin-7-yl)-4-(((3R,4S)-4-fluoropyrrolidin-3-yl)oxy)benzonitrile], the IC50 is less than 1000 nM.

As for `O=C1CCC(=O)N1Cc1cc2nccc(-c3cc(Cl)cc(Cl)c3O[C@@H]3CNC[C@@H]3F)c2s1` [Example 123, 1-((7-(3,5-Dichloro-2-(((3R,4S)-4-fluoropyrrolidin-3-yl)oxy)phenyl)thieno[3,2-b]pyridin-2-yl)methyl)pyrrolidine-2,5-dione], the IC50 was less than 1000 nM.

Take `Cc1cc(Cl)cc(-c2ccnc3cc(CN4C(=O)CCC4=O)sc23)c1O[C@@H]1CN(C)C[C@@H]1F` [Example 124, 1-((7-(5-Chloro-2-(((3R,4S)-4-fluoro-1-methylpyrrolidin-3-yl)oxy)-3-methylphenyl)thieno[3,2-b]pyridin-2-yl)methyl)pyrrolidine-2,5-dione]: the IC50 was less than 1000 nM.

For `Cc1cc(Cl)cc(-c2ccnc3cc(CN4C(=O)CCC4=O)sc23)c1O[C@@H]1CN[C@@H](C(F)F)C1` [Example 125, 1-((7-(5-Chloro-2-(((3S,5R)-5-(difluoromethyl)pyrrolidin-3-yl)oxy)-3-methylphenyl)thieno[3,2-b]pyridin-2-yl)methyl)pyrrolidine-2,5-dione], the IC50 is 1000 to 10000 nM.

With `Cc1cc(Cl)cc(-c2ccnc3cc(CN4C(=O)CCC4=O)sc23)c1O[C@@H]1CC[C@@H](N)C1` [Example 126, 1-((7-(2-(((1R,3R)-3-Aminocyclopentyl)oxy)-5-chloro-3-methylphenyl)thieno[3,2-b]pyridin-2-yl)methyl)pyrrolidine-2,5-dione], the IC50 is less than 1000 nM.

As for `Cc1cc(Cl)cc(-c2ccnc3cc(CN4C(=O)CCC4=O)sc23)c1O[C@H]1CC[C@H](N)C1` [Example 127, 1-((7-(2-(((1S,3S)-3-Aminocyclopentyl)oxy)-5-chloro-3-methylphenyl)thieno[3,2-b]pyridin-2-yl)methyl)pyrrolidine-2,5-dione], the IC50 was less than 1000 nM.

For the compound `Cc1cc(Cl)cc(-c2ncnc3cc(CN4C(=O)COC4=O)sc23)c1O[C@@H]1CNC[C@@H]1F` [Example 128, 3-((4-(5-Chloro-2-(((3R,4S)-4-fluoropyrrolidin-3-yl)oxy)-3-methylphenyl)thieno[3,2-d]pyrimidin-6-yl)methyl)oxazolidine-2,4-dione], the IC50 was less than 1000 nM.

Consider `Cc1cc(Cl)cc(-c2ncnc3cc(CN4C(=O)CSC4=O)sc23)c1O[C@@H]1CNC[C@@H]1F` [Example 129, 3-((4-(5-Chloro-2-(((3R,4S)-4-fluoropyrrolidin-3-yl)oxy)-3-methylphenyl)thieno[3,2-d]pyrimidin-6-yl)methyl)thiazolidine-2,4-dione], for which the IC50 was less than 1000 nM.

Regarding `Cc1cc(Cl)cc(-c2ccnc3cc(CN4C(=O)CCC4=O)sc23)c1OC1CNC(C)(C)C1` (centres unmarked) [Example 130, 1-((7-(5-Chloro-2-((5,5-dimethylpyrrolidin-3-yl)oxy)-3-methylphenyl)thieno[3,2-b]pyridin-2-yl)methyl)pyrrolidine-2,5-dione], the IC50 is less than 1000 nM.

With `Cc1cc(C(F)(F)F)cc(-c2ccnc3cc(CN4C(=O)C5CC5C4=O)sc23)c1O[C@@H]1CNC[C@@H]1F` (stereo partly drawn) [Example 131, 3-((7-(2-(((3R,4S)-4-Fluoropyrrolidin-3-yl)oxy)-3-methyl-5-(trifluoromethyl)phenyl)thieno[3,2-b]pyridin-2-yl)methyl)-3-azabicyclo[3.1.0]hexane-2,4-dione], the IC50 is less than 1000 nM.

As for `Cc1cc(C(F)(F)F)cc(-c2ccnc3cc(Cn4c(=O)ccn(C)c4=O)sc23)c1O[C@@H]1CNC[C@@H]1F` [Example 132, 3-((7-(2-(((3R,4S)-4-Fluoropyrrolidin-3-yl)oxy)-3-methyl-5-(trifluoromethyl)phenyl)thieno[3,2-b]pyridin-2-yl)methyl)-1-methylpyrimidine-2,4(1H,3H)-dione], the IC50 was less than 1000 nM.

`Cc1cc(Cl)cc(-c2ccnc3cc(CN4C(=O)OC(C)(C)C4=O)sc23)c1O[C@@H]1CNC[C@@H]1F` [Example 133, 3-((7-(5-Chloro-2-(((3R,4S)-4-fluoropyrrolidin-3-yl)oxy)-3-methylphenyl)thieno[3,2-b]pyridin-2-yl)methyl)-5,5-dimethyloxazolidine-2,4-dione]: the IC50 is less than 1000 nM.

In the case of `Cc1cc(Cl)cc(-c2ncnc3cc(CN4C(=O)CCCC4=O)sc23)c1O[C@@H]1CNC[C@@H]1F` [Example 134, 1-((4-(5-Chloro-2-(((3R,4S)-4-fluoropyrrolidin-3-yl)oxy)-3-methylphenyl)thieno[3,2-d]pyrimidin-6-yl)methyl)piperidine-2,6-dione], the IC50 is less than 1000 nM.

In the case of `N#Cc1cc(-c2ccnc3cc(CN4C(=O)CCC4=O)sc23)c(O[C@@H]2CNC[C@@H]2F)cc1F` [Example 135, 5-(2-((2,5-Dioxopyrrolidin-1-yl)methyl)thieno[3,2-b]pyridin-7-yl)-2-fluoro-4-(((3R,4S)-4-fluoropyrrolidin-3-yl)oxy)benzonitrile], the IC50 is 1000 to 10000 nM.

For the compound `Cc1cc(C(F)(F)F)cc(-c2ccnc3cc(Cn4c(=O)[nH]cc(F)c4=O)sc23)c1O[C@@H]1CNC[C@@H]1F` [Example 136, 5-Fluoro-3-((7-(2-(((3R,4S)-4-fluoropyrrolidin-3-yl)oxy)-3-methyl-5-(trifluoromethyl)phenyl)thieno[3,2-b]pyridin-2-yl)methyl)pyrimidine-2,4(1H,3H)-dione], the IC50 was less than 1000 nM.

Regarding `CC[C@@H](c1cc2nccc(-c3cc(Cl)cc(C)c3O[C@@H]3CNC[C@@H]3F)c2s1)N1C(=O)CCC1=O` [Example 137, 1-((S)-1-(7-(5-Chloro-2-(((3R,4S)-4-fluoropyrrolidin-3-yl)oxy)-3-methylphenyl)thieno[3,2-b]pyridin-2-yl)propyl)pyrrolidine-2,5-dione], the IC50 was less than 1000 nM.

`Cc1cc(Cl)cc(-c2ccnc3cc(CN4C(=O)C5CCCCN5C4=O)sc23)c1O[C@@H]1CNC[C@@H]1F` (stereo partly drawn) [Example 138, 2-((7-(5-Chloro-2-(((3R,4S)-4-fluoropyrrolidin-3-yl)oxy)-3-methylphenyl)thieno[3,2-b]pyridin-2-yl)methyl)tetrahydroimidazo[1,5-a]pyridine-1,3(2H,5H)-dione]: the IC50 was less than 1000 nM.

`Cc1cc(Cl)cc(-c2ccnc3cc(CCN4C(=O)c5ccccc5S4(=O)=O)sc23)c1O[C@@H]1CNC[C@@H]1F` [Example 139, 2-(2-(7-(5-Chloro-2-(((3R,4S)-4-fluoropyrrolidin-3-yl)oxy)-3-methylphenyl)thieno[3,2-b]pyridin-2-yl)ethyl)benzo[d]isothiazol-3(2H)-one 1,1-dioxide]: the IC50 was 10000 to 30000 nM.

Consider `Cc1cc(Cl)cc(-c2ccnc3cc(CCOC4=NS(=O)(=O)c5ccccc54)sc23)c1O[C@@H]1CNC[C@@H]1F` [Example 140, 3-(2-(7-(5-Chloro-2-(((3R,4S)-4-fluoropyrrolidin-3-yl)oxy)-3-methylphenyl)thieno[3,2-b]pyridin-2-yl)ethoxy)benzo[d]isothiazole 1,1-dioxide], for which the IC50 lay within 10000 to 30000 nM.

As for `Cc1cc(Cl)cc(-c2ccnc3cc(CN4C(=O)C5CCCC5C4=O)sc23)c1O[C@@H]1CNC[C@@H]1F` (stereo partly drawn) [Example 141, 2-((7-(5-Chloro-2-(((3R,4S)-4-fluoropyrrolidin-3-yl)oxy)-3-methylphenyl)thieno[3,2-b]pyridin-2-yl)methyl)tetrahydrocyclopenta[c]pyrrole-1,3(2H,3aH)-dione], the IC50 was less than 1000 nM.

Consider `Cc1cc(Cl)cc(-c2ccnc3cc(CN4C(=O)C5CCCCC5C4=O)sc23)c1O[C@@H]1CNC[C@@H]1F` (stereo partly drawn) [Example 142, 2-((7-(5-Chloro-2-(((3R,4S)-4-fluoropyrrolidin-3-yl)oxy)-3-methylphenyl)thieno[3,2-b]pyridin-2-yl)methyl)hexahydro-1H-isoindole-1,3(2H)-dione], for which the IC50 was less than 1000 nM.

`Cc1cc(Cl)cc(-c2ccnc3cc(CN4C(=O)C5CCCN5C4=O)sc23)c1O[C@@H]1CNC[C@@H]1F` (stereo partly drawn) [Example 143, 2-((7-(5-Chloro-2-(((3R,4S)-4-fluoropyrrolidin-3-yl)oxy)-3-methylphenyl)thieno[3,2-b]pyridin-2-yl)methyl)tetrahydro-1H-pyrrolo[1,2-c] imidazole-1,3(2H)-dione]: the IC50 is less than 1000 nM.

`Cc1cc(Cl)cc(-c2ccnc3cc(CN4C(=O)CN(C)C4=O)sc23)c1O[C@@H]1CNC[C@@H]1F` [Example 144, 3-((7-(5-Chloro-2-(((3R,4S)-4-fluoropyrrolidin-3-yl)oxy)-3-methylphenyl)thieno[3,2-b]pyridin-2-yl)methyl)-1-methylimidazolidine-2,4-dione]: the IC50 fell in the range of 1000 to 10000 nM.

Consider `Cc1cc(Cl)cc(-c2ccnc3cc(CN4C(=O)SC(C)(C)C4=O)sc23)c1O[C@@H]1CNC[C@@H]1F` [Example 145, 3-((7-(5-Chloro-2-(((3R,4S)-4-fluoropyrrolidin-3-yl)oxy)-3-methylphenyl)thieno[3,2-b]pyridin-2-yl)methyl)-5,5-dimethylthiazolidine-2,4-dione], for which the IC50 is less than 1000 nM.

As usually defined, the IC50 is the midpoint of a concentration-inhibition curve.
